Experimental data: patent US10131644B2, “Aryl sultam derivatives as RORc modulators” (Genentech, Inc., priority 2014, dated 2018)

The molecules below were run against T1, RORc (Homo sapiens, UniProt P51449) (assay: In vitro RORc ligand binding assay (25-[3H]hydroxycholesterol displacement)). Conditions: IC50, IC50 values for RORc; unit inferred.
T1 sequence (P51449 269-508 limits assumed): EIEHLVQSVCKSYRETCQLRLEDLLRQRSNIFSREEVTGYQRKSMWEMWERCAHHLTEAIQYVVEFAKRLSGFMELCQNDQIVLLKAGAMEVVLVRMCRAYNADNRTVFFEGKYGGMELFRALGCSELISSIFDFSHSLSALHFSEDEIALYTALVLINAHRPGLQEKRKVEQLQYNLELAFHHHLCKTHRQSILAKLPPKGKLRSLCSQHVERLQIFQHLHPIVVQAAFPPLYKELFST

Compared with CC(=O)N1CCC(OCC(O)CO)(c2cc(F)c(CN3[C@@H](C)CC[C@H](c4ccccc4)S3(=O)=O)cc2F)CC1 (stereo in doubt) [Compound 169, 1-[4-[2,5-difluoro-4-[[(3S,6R)-3-methyl-1,1-dioxo-6-phenyl-thiazinan-2-yl]methyl]phenyl]-4-[(2R)-2,3-dihydroxypropoxy]-1-piperidyl]ethanone], C[C@H]1CC[C@H](c2ccccc2)S(=O)(=O)N1Cc1cc(F)c(C2(OCC(O)CO)CCOCC2)cc1F (stereo partly drawn) [Compound 151, 3-[4-[2,5-difluoro-4-[[(3S,6R)-3-methyl-1,1-dioxo-6-phenyl-thiazinan-2-yl]methyl]phenyl]tetrahydropyran-4-yl]oxypropane-1,2-diol] is 2.7-fold lower in IC50: 20.8 nM for the first, 7.8 nM for the second. The second is the more potent here.

Compared with C[C@H]1CC[C@H](c2ccccc2)S(=O)(=O)N1Cc1ccc(C2(C(N)=O)CCOCC2)cc1 [Compound 31, 4-[4-((3S,6R)-3-Methyl-1,1-dioxo-6-phenyl-[1,2]thiazinan-2-ylmethyl)-phenyl]-tetrahydro-pyran-4-carboxylic acid amide], CC(=O)N1CCC(F)(c2ccc(CN3[C@@H](C)CC[C@H](c4ccccc4)S3(=O)=O)cc2)CC1 [Example 8, 1-{4-Fluoro-4-[4-((3S,6R)-3-methyl-1,1-dioxo-6-phenyl-[1,2]thiazinan-2-ylmethyl)-phenyl]-piperidin-1-yl}-ethanone] is 2.1-fold lower in IC50: 420 nM for the first, 200 nM for the second.

First: C[C@H]1CC[C@H](c2ccccc2)S(=O)(=O)N1Cc1ccc(C2(C(=O)NCCO)CCOCC2)cc1F [Compound 48, 4-(3-fluoro-4-(((3S,6R)-3-methyl-1,1-dioxido-6-phenyl-1,2-thiazinan-2-yl)methyl)phenyl)-N-(2-hydroxyethyl)tetrahydro-2H-pyran-4-carboxamide]
Second: COCCNC(=O)C1(c2ccc(CN3[C@@H](C)CC[C@H](c4ccccc4)S3(=O)=O)c(F)c2)CCOCC1 [Compound 64, 4-[3-fluoro-4-[[(3S,6R)-3-methyl-1,1-dioxo-6-phenyl-thiazinan-2-yl]methyl]phenyl]-N-(2-methoxyethyl)tetrahydropyran-4-carboxamide]
The IC50 of the first is 3.8-fold higher: 337 nM for the first, 89 nM for the second. The second is the more potent here.

C[C@H]1CC[C@H](c2ccccc2)S(=O)(=O)N1Cc1ccc(C2(NC[C@@H](O)CO)CCOCC2)cc1F [Compound 108] and C[C@H]1CC[C@H](c2ccccc2)S(=O)(=O)N1Cc1ccc(C2([C@@H](O)CCO)CCOCC2)cc1F [Compound 117, (1S)-1-[4-[3-fluoro-4-[[(3S,6R)-3-methyl-1,1-dioxo-6-phenyl-thiazinan-2-yl]methyl]phenyl]tetrahydropyran-4-yl]propane-1,3-diol] are within 1.5-fold of each other in IC50: 50.4 nM for the first, 35.2 nM for the second.

Compared with C[C@H]1CC[C@H](c2ccccc2)S(=O)(=O)N1Cc1cc(F)c(C2(C(=O)NCC#N)CCOCC2)cc1F [Compound 100, N-(cyanomethyl)-4[2,5-difluoro-4-[[(3S,6R)-3-methyl-1,1-dioxo-6-phenyl-thiazinan-2-yl]methyl]phenyl]tetrahydropyran-4-carboxamide], CCNC(=O)C1(c2ccc(CN3[C@@H](C)CC[C@H](c4ccccc4)S3(=O)=O)c(F)c2)CCOCC1 [Compound 51, N-ethyl-4-[3-fluoro-4-[[(3S,6R)-3-methyl-1,1-dioxo-6-phenyl-thiazinan-2-yl]methyl]phenyl]tetrahydropyran-4-carboxamide] is 4.7-fold higher in IC50: 31 nM for the first, 147 nM for the second.

C[C@H]1CC[C@H](c2ccccc2)S(=O)(=O)N1Cc1ccc(C2(CCC#N)COC2)cc1F [Compound 159] and COCC1(c2ccc(CN3[C@@H](C)CC[C@H](c4ccccc4)S3(=O)=O)c(F)c2)CCOCC1 [Compound 90, (3S,6R)-2-[[2-fluoro-4-[4-(methoxymethyl)tetrahydropyran-4-yl]phenyl]methyl]-3-methyl-6-phenyl-thiazinane 1,1-dioxide] are within 1.5-fold of each other in IC50: 77.1 nM for the first, 67 nM for the second.

Compared with CC(=O)N[C@H]1CC[C@](C#N)(c2ccc(CN3[C@@H](C)CC[C@H](c4ccccc4)S3(=O)=O)c(F)c2)CC1 [Compound 34, N-{4-Cyano-4-[3-fluoro-4-((3S,6R)-3-methyl-1,1-dioxo-6-phenyl-[1,2]thiazinan-2-ylmethyl)-phenyl]-cyclohexyl}-acetamide], COC(=O)C1(c2ccc(CN3[C@@H](C)CC[C@H](c4ccccc4)S3(=O)=O)c(F)c2)CCOCC1 [Compound 39, 4-[3-Fluoro-4-((3S,6R)-3-methyl-1,1-dioxo-6-phenyl-[1,2]thiazinan-2-ylmethyl)-phenyl]-tetrahydro-pyran-4-carboxylic acid methyl ester] is 12-fold lower in IC50: 2300 nM for the first, 190 nM for the second. The second is the more potent here.

Compared with C[C@H]1CC[C@H](c2ccccc2)S(=O)(=O)N1Cc1ccc(C2(OCC(=O)O)CCOCC2)cc1F [Compound 110, 2-[4-[3-fluoro-4-[[(3S,6R)-3-methyl-1,1-dioxo-6-phenyl-thiazinan-2-yl]methyl]phenyl]tetrahydropyran-4-yl]oxyacetic acid], C[C@H]1CC[C@H](c2ccccc2)S(=O)(=O)N1Cc1ccc(C2(C(=O)NCC(=O)O)CCOCC2)cc1F [Compound 58, 2-[[4-[3-fluoro-4-[[(3S,6R)-3-methyl-1,1-dioxo-6-phenyl-thiazinan-2-yl]methyl]phenyl]tetrahydropyran-4-carbonyl]amino]acetic acid] is 3.6-fold higher in IC50: 62.9 nM for the first, 228 nM for the second.

Going from CCOC(=O)[C@@H](C)NC1(c2ccc(CN3[C@@H](C)CC[C@H](c4ccccc4)S3(=O)=O)c(F)c2)CCOCC1 [Compound 172, ethyl (2R)-2-[[4-[3-fluoro-4-[[(3S,6R)-3-methyl-1,1-dioxo-6-phenyl-thiazinan-2-yl]methyl]phenyl]tetrahydropyran-4-yl]amino]propanoate] to C[C@H]1CC[C@H](c2ccccc2)S(=O)(=O)N1Cc1ccc(C2(C(=O)NCC(N)=O)CCOCC2)cc1F [Compound 59, N-(2-amino-2-oxo-ethyl)-4-[3-fluoro-4-[[(3S,6R)-3-methyl-1,1-dioxo-6-phenyl-thiazinan-2-yl]methyl]phenyl]tetrahydropyran-4-carboxamide], the IC50 rises from 120 nM to 268 nM (2.2-fold). The first is the more potent here.

First: C[C@H]1CC[C@H](c2ccccc2)S(=O)(=O)N1Cc1cc(F)c(C2(CO)CCC(n3cnnc3)CC2)cc1F (stereo partly drawn) [Compound 133, [1-[2,5-difluoro-4-[[(3S,6R)-3-methyl-1,1-dioxo-6-phenyl-thiazinan-2-yl]methyl]phenyl]-4-(1,2,4-triazol-4-yl)cyclohexyl]methanol]
Second: C[C@H]1CC[C@H](c2ccccc2)S(=O)(=O)N1Cc1cc(F)c(C2(OCC(=O)O)COC2)cc1F [Compound 135, 2-[3-[2,5-difluoro-4-[[(3S,6R)-3-methyl-1,1-dioxo-6-phenyl-thiazinan-2-yl]methyl]phenyl]oxetan-3-yl]oxyacetic acid]
The IC50 of the first is 5.2-fold lower: 5.2 nM for the first, 27.2 nM for the second. The first is the more potent here.

Compared with CC(=O)N1CC(OCC(N)=O)(c2cc(F)c(CN3[C@@H](C)CC[C@H](c4ccccc4)S3(=O)=O)cc2F)C1 [Compound 175, 2-[1-acetyl-3-[2,5-difluoro-4-[[(3S,6R)-3-methyl-1,1-dioxo-6-phenyl-thiazinan-2-yl]methyl]phenyl]azetidin-3-yl]oxyacetamide], C[C@H]1CC[C@H](c2ccccc2)S(=O)(=O)N1Cc1cc(F)c(C2(OCC(=O)N(C)CCO)CCOCC2)cc1F [Compound 157, 2-[4-[2,5-difluoro-4-[[(3S,6R)-3-methyl-1,1-dioxo-6-phenyl-thiazinan-2-yl]methyl]phenyl]tetrahydropyran-4-yl]oxy-N-(2-hydroxyethyl)-N-methyl-acetamide] is 9.6-fold higher in IC50: 4.9 nM for the first, 47.2 nM for the second. The first is the more potent here.
